Experimental data published in patent US20150105252A1, “SUBSTITUTED PYRAZOLES AS HERBICIDES” (E I DU PONT DE NEMOURS AND COMPANY, priority 2013, published 2015).

Tests used:
johnsongrass = assay: Test E preemergence; format: in vivo, Sorghum halepense; conditions: 21 days, scale 0 to 100
Excerpt: (§1) Seeds of plant species selected from bermudagrass (Cynodon dactylon), Surinam grass (Brachiaria decumbens), crabgrass, large (large crabgrass, Digitaria sanguinalis), crabgrass, naked (naked crabgrass, Digitaria nuda), foxtail, green (green foxtail, Setaria viridis), johnsongrass (Sorghum halepense), kochia (Kochia scoparia), morningglory (pitted morningglory, Ipomoea lacunosa), nutsedge, purple (purple nutsedge, Cyperus rotundus), ragweed (common ragweed, Ambrosia elation), mustard, black (black mustard, Brassica nigra), guineagrass (Panicum maximum), dallisgrass (Paspalum dilatatum), barnyardgrass (Echinochloa crus-galli), sandbur (southern sandbur, Cenchrus echinatus), sowthistle (common sowthistle, Sonchus oleraceous), ryegrass, Italian (Italian ryegrass, Lolium multiflorum), signalgrass (broadleaf signalgrass, Brachiaria platyphylla), dayflower, VA (Virginia (VA) dayflower, Commelina virginica), bluegrass (annual bluegrass, Poa annua), quackgrass (Elytrigia repens), mallow (common mallow, Malva sylvestris), buckwheat, wild (wild buckwheat, Polygonum convolvulus), leafy spurge (Euphorbia esula), common chickweed (Stellaria media), wild poinsettia (Euphorbia heterophylla), pigweed, palmer (palmer pigweed, Amaranthus palmeri), and pigweed (redroot pigweed, Amaranthus retroflexus) were planted into a blend of loam soil and sand and treated preemergence with test chemicals formulated in a non-phytotoxic solvent mixture which included a surfactant.
(§2) Treated plants and controls were maintained in a greenhouse for 21 days, after which time all species were compared to controls and visually evaluated. Plant response ratings, summarized in Table E, are based on a scale of 0 to 100 where 0 is no effect and 100 is complete control. A dash (-) response means no test result.

guineagrass = assay: Test E preemergence; format: in vivo, Panicum maximum; conditions: 21 days, scale 0 to 100
Excerpt: as §1, §2

sowthistle = assay: Test E preemergence; format: in vivo, Sonchus oleraceous; conditions: 21 days, scale 0 to 100
Excerpt: as §1, §2

dayflower, VA = assay: Test E preemergence; format: in vivo, Commelina virginica; conditions: 21 days, scale 0 to 100
Excerpt: as §1, §2

mallow = assay: Test E preemergence; format: in vivo, Malva sylvestris; conditions: 21 days, scale 0 to 100
Excerpt: as §1, §2

barnyardgrass = assay: Test F postemergence; format: in vivo, Echinochloa crus-galli; conditions: scale 0 to 100
Excerpt: (§3) Seeds of plant species selected from corn (Zea mays), soybean (Glycine max), velvetleaf (Abutilon theophrasti), lambsquarters (Chenopodium album), wild poinsettia (Euphorbia heterophylla), pigweed, palmer (palmer pigweed, Amaranthus palmeri), common waterhemp (Amaranthus rudis), surinam grass (Brachiaria decumbens), large crabgrass (Digitaria sanguinalis), crabgrass, Brazil (Brazilian crabgrass, Digitaria horizontalis), fall panicum (Panicum dichotomiflorum), giant foxtail (Setaria faberii), green foxtail (Setaria viridis), goosegrass (Eleusine indica), johnsongrass (Sorghum halepense), common ragweed (Ambrosia elation), barnyardgrass (Echinochloa crus-galli), southern sandbur (Cenchrus echinatus), arrowleaf sida (Sida rhombifolia), Italian ryegrass (Lolium multiflorum), dayflower, VA (Virginia (VA) dayflower, Commelina virginica), field bindweed (Convolvulus arvensis), cocklebur (common cocklebur, Xanthium strumarium), morningglory (Ipomoea coccinea), nightshade (eastern black nightshade, Solanum ptycanthum), kochia (Kochia scoparia), yellow nutsedge (Cyperus esculentus), and hairy beggarticks (Bidens pilosa), were planted into a silt loam soil and treated preemergence with test chemicals formulated in a non-phytotoxic solvent mixture which included a surfactant.
(§4) At the same time, plants from these crop and weed species and also horseweed (Canada horseweed, Conyza canadensis), smartweed (ladysthumb smartweed, Polygonum persicaria), waterhemp_RES1, (ALS & Triazine resistant common waterhemp, Amaranthus rudis), and waterhemp_RES2, (ALS & HPPD resistant common waterhemp, Amaranthus rudis) were treated with postemergence applications of test chemicals formulated in the same manner. Plants ranged in height from 2 to 18 cm for postemergence treatments (1- to 4-leaf stage). Treated plants and controls were maintained in a greenhouse for 14 to 21 days, after which time all species were compared to controls and visually evaluated. Plant response ratings, summarized in Table F, are based on a scale of 0 to 100 where 0 is no effect and 100 is complete control. A dash (-) response means no test result.

arrowleaf sida = assay: Test F postemergence; format: in vivo, Sida rhombifolia; conditions: scale 0 to 100
Excerpt: as §3, §4

Italian ryegrass = assay: Test F postemergence; format: in vivo, Lolium multiflorum; conditions: scale 0 to 100
Procedure, shortened: (§5)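 Visual injury was scored from 0 (none) to 100 (complete control) relative to untreated controls after 14–21 days in a greenhouse. Before that, formulated compound (solvent plus surfactant) was sprayed either on silt-loam soil right after sowing or on emerged plants at the 1–4-leaf stage, 2–18 cm tall.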

hairy beggarticks = assay: Test F postemergence; format: in vivo, Bidens pilosa; conditions: scale 0 to 100
Procedure, shortened: as §5

common waterhemp = assay: Test F postemergence; format: in vivo, Amaranthus rudis; conditions: scale 0 to 100
Procedure, shortened: as §5

[1] = tested on: waterhemp_RES1 (ALS & Triazine resistant common waterhemp); assay: Test F postemergence; format: in vivo, Amaranthus rudis; conditions: scale 0 to 100
Procedure, shortened: as §5

[2] = tested on: waterhemp_RES2 (ALS & HPPD resistant common waterhemp); assay: Test F postemergence; format: in vivo, Amaranthus rudis; conditions: scale 0 to 100
Procedure, shortened: as §5

`CCc1cc(C(=O)NCC(F)(F)F)nn1Cc1ccnc(C(F)(F)F)c1` [Compound 78, 5-ethyl-N-(2,2,2-trifluoroethyl)-1-[[(2-trifluoromethyl)-4-pyridinyl]methyl]-1H-pyrazole-3-carboxamide] was tested, and the “Plant response rating, Johnsongrass” value (johnsongrass; 16 g ai/ha) was 40, the “Plant response rating, Johnsongrass” value (johnsongrass; 31 g ai/ha) was 80 and the “Plant response rating, Johnsongrass” value (johnsongrass; 62 g ai/ha) was 85. For the same molecule, the “Plant response rating, Johnsongrass” value (johnsongrass; 125 g ai/ha) was 100, the “Plant response rating, Johnsongrass” value (johnsongrass; 250 g ai/ha) was 100 and the “Plant response rating, Guineagrass” value (guineagrass; 16 g ai/ha) was 90. For the same molecule, the “Plant response rating, Guineagrass” value (guineagrass; 31 g ai/ha) was 100, the “Plant response rating, Guineagrass” value (guineagrass; 62 g ai/ha) was 100 and the “Plant response rating, Guineagrass” value (guineagrass; 125 g ai/ha) was 100. For the same molecule, the “Plant response rating, Guineagrass” value (guineagrass; 250 g ai/ha) was 100, the “Plant response rating, Sowthistle” value (sowthistle; 62 g ai/ha) was 100 and the “Plant response rating, Sowthistle” value (sowthistle; 125 g ai/ha) was 100. The “Plant response rating, Sowthistle” value (sowthistle; 250 g ai/ha) was 100, the “Plant response rating, Dayflower, VA” value (dayflower, VA; 16 g ai/ha) was 85 and the “Plant response rating, Dayflower, VA” value (dayflower, VA; 31 g ai/ha) was 100. The “Plant response rating, Dayflower, VA” value (dayflower, VA; 62 g ai/ha) was 100, the “Plant response rating, Dayflower, VA” value (dayflower, VA; 125 g ai/ha) was 100 and the “Plant response rating, Dayflower, VA” value (dayflower, VA; 250 g ai/ha) was 100. The “Plant response rating, Mallow” value (mallow; 16 g ai/ha) was 100, the “Plant response rating, Mallow” value (mallow; 31 g ai/ha) was 100 and the “Plant response rating, Mallow” value (mallow; 62 g ai/ha) was 100. For the same molecule, the “Plant response rating, Mallow” value (mallow; 125 g ai/ha) was 100, the “Plant response rating, Mallow” value (mallow; 250 g ai/ha) was 100 and the “Plant response rating, Barnyardgrass” value (barnyardgrass; Postemergence, 31 g ai/ha) was 5. The “Plant response rating, Barnyardgrass” value (barnyardgrass; Postemergence, 125 g ai/ha) was 40, the “Plant response rating, Barnyardgrass” value (barnyardgrass; Postemergence, 250 g ai/ha) was 70 and the “Plant response rating, Barnyardgrass” value (barnyardgrass; postemergence, 62 g ai/ha) was 30. For the same molecule, the “Plant response rating, Barnyardgrass” value (barnyardgrass; postemergence, 500 g ai/ha) was 90, the “Plant response rating, Arrowleaf Sida” value (arrowleaf sida; Postemergence, 31 g ai/ha) was 50 and the “Plant response rating, Arrowleaf Sida” value (arrowleaf sida; Postemergence, 125 g ai/ha) was 75. The “Plant response rating, Arrowleaf Sida” value (arrowleaf sida; Postemergence, 250 g ai/ha) was 80, the “Plant response rating, Arrowleaf Sida” value (arrowleaf sida; postemergence, 62 g ai/ha) was 60 and the “Plant response rating, Arrowleaf Sida” value (arrowleaf sida; postemergence, 500 g ai/ha) was 95. The “Plant response rating, Italian Ryegrass” value (Italian ryegrass; Postemergence, 31 g ai/ha) was 0, the “Plant response rating, Italian Ryegrass” value (Italian ryegrass; Postemergence, 125 g ai/ha) was 40 and the “Plant response rating, Italian Ryegrass” value (Italian ryegrass; Postemergence, 250 g ai/ha) was 60. For the same molecule, the “Plant response rating, Italian Ryegrass” value (Italian ryegrass; postemergence, 62 g ai/ha) was 10, the “Plant response rating, Italian Ryegrass” value (Italian ryegrass; postemergence, 500 g ai/ha) was 90 and the “Plant response rating, Hairy Beggarticks” value (hairy beggarticks; Postemergence, 31 g ai/ha) was 30. For the same molecule, the “Plant response rating, Hairy Beggarticks” value (hairy beggarticks; Postemergence, 125 g ai/ha) was 50, the “Plant response rating, Hairy Beggarticks” value (hairy beggarticks; Postemergence, 250 g ai/ha) was 75 and the “Plant response rating, Hairy Beggarticks” value (hairy beggarticks; postemergence, 62 g ai/ha) was 40. The “Plant response rating, Hairy Beggarticks” value (hairy beggarticks; postemergence, 500 g ai/ha) was 90, the “Plant response rating, Common Waterhemp” value (common waterhemp; Postemergence, 31 g ai/ha) was 70 and the “Plant response rating, Common Waterhemp” value (common waterhemp; Postemergence, 125 g ai/ha) was 75. The “Plant response rating, Common Waterhemp” value (common waterhemp; Postemergence, 250 g ai/ha) was 70, the “Plant response rating, Common Waterhemp” value (common waterhemp; postemergence, 62 g ai/ha) was 60 and the “Plant response rating, Common Waterhemp” value (common waterhemp; postemergence, 500 g ai/ha) was 98. The “Plant response rating, Waterhemp_RES1” value ([1]; Postemergence, 31 g ai/ha) was 60, the “Plant response rating, Waterhemp_RES1” value ([1]; Postemergence, 125 g ai/ha) was 60 and the “Plant response rating, Waterhemp_RES1” value ([1]; Postemergence, 250 g ai/ha) was 65. The “Plant response rating, Waterhemp_RES1” value ([1]; postemergence, 62 g ai/ha) was 70, the “Plant response rating, Waterhemp_RES1” value ([1]; postemergence, 500 g ai/ha) was 100 and the “Plant response rating, Waterhemp_RES2” value ([2]; Postemergence, 31 g ai/ha) was 60. The “Plant response rating, Waterhemp_RES2” value ([2]; Postemergence, 125 g ai/ha) was 70, the “Plant response rating, Waterhemp_RES2” value ([2]; Postemergence, 250 g ai/ha) was 75 and the “Plant response rating, Waterhemp_RES2” value ([2]; postemergence, 62 g ai/ha) was 65. The “Plant response rating, Waterhemp_RES2” value ([2]; postemergence, 500 g ai/ha) was 95.
